Results on five molecules are retold here after patent publication US12545677B2, “Compounds useful as factor XIa inhibitors” (JANSSEN PHARMACEUTICA NV, priority 2020, dated 2026).

One may read the IC50 as the concentration needed to halve the response being measured.

The target of data set [1] is Factor XIa (Homo sapiens, UniProt P03951). The data set is described as follows: Factor XIa inhibition assay using fluorophore-quencher pair peptide substrate. The class given is biochemical. An excerpt: Biological Example 1: Factor XIa Inhibition Assay
Using Fluorophore-quencher Pair Peptide Substrate
A fluorescence intensity-based assay was used to monitor inhibition of Factor XIa. The peptide substrate, 5Fam-[…]-K5Tamra (purchased from New England Peptide) was chosen based on the […]. Conversion of zymogen FIX to its activated form, FIXa, occurs by proteolytic cleavage by FXIa at two sites, Arg146 and Arg180. The custom peptide used in this assay was based on the Arg146 cleavage site. The peptide substrate was designed with a fluorophore-quencher pair, where the fluorescence is quenched until FXIa cleaves the 8-mer peptide after the Arg residue.
Factor XIa FLINT assay was used with the following 5Fam-[…]-K5Tamra assay buffer: 50 mM Tris, pH 7.5, 100 mM NaCl, 5 mM CaCl2, 0.1 mg/mL BSA, 0.03% CHAPS was used. Assay buffer was prepared by mixing all ingredients fresh. 2×5Fam-[…]-K5Tamra peptide substrate was first prepared in 100% DMSO, then diluted 10 mM to 3 mM in 100% DMSO. Assay buffer was then added directly to the 3 mM stock of substrate to prepare the 30 μM 2× working concentration (15 μM final concentration). The 2× Factor XIa stock solution was prepared by diluting 6.562 μM stock in 1× assay buffer for a 200 pM working stock solution (100 pM final concentration).
Test compound(s) were run in an 11-point, 3-fold serial dilution with a final top compound concentration of […]. Final DMSO in assay was 2% DMSO. FXIa and compound were pre-incubated for 30 minutes and substrate was then added to initiate the reaction. The assay was linear using 100 pM FXIa greater than 30 minutes. More specifically, the assay was run as follows: • 100 nL of 1 mM test compound was dispensed into a black 384-well non-binding Greiner BioOne 784900 plate for 10 μM final concentration with 1% DMSO final concentration; • 5 μL of 1× assay buffer was dispensed to column 24 (low control) and 5 μL 2× Factor XIa solution was dispensed to columns 1-23 (column 23 high control); • the plate was centrifuged with a “cover” plate at 500 rpm for 1 min • the plate was pre-incubated for 30 minutes at room temperature with plate covered; • 5 μL of 2× 5Fam-[…]-K5Tamra peptide substrate was dispensed into the entire plate, columns 1-24; • the plate was centrifuged with a cover plate at 500 rpm for 1 min; • the plate was read kinetically monitoring fluorescence intensity on the BMG PHERAStar at room temperature, using fluorescence module F1 485 mm/520 mm.
(§1) Percent inhibition (IC50) curves were generated per compound tested, and data was analyzed using a 4-parameter logistic fit using GeneData Screener. […]

Data set [2] addresses human plasma kallikrein (Homo sapiens, UniProt P03952). The data set is described as follows: Kallikrein inhibition assay utilizing quenched AMC peptide substrate. The note with it: read-out: Plasma kallikrein (PK) IC50. The class given is biochemical. The method, then:
Biological Example 2: Kallikrein Inhibition Assay
Utilizing Quenched AMC Peptide Substrate
A fluorescence intensity-based assay was used to monitor inhibition of human plasma kallikrein. The peptide substrate, Z-Gly-Pro-Arg-AMC (Purchased from Bachem; Catalog #1-1150) was chosen based on its relatively low KM for kallikrein which enables running the assay at lower substrate concentrations to control background fluorescence. The kinetic parameters for this substrate were determined by fitting titration data to the Michaelis-Menten equation yielding a KM=40 μM, kcat=0.76 s^−1, and kcat/KM=18932 M^−1s^−1.
Kallikrein FLINT assay was used with the following Z-Gly-Pro-Arg-AMC assay buffer: 50 mM Tris, pH 7.5, 100 mM NaCl, 5 mM CaCl2, 0.1 mg/mL BSA, 0.03% CHAPS. Assay buffer was prepared by mixing all ingredients fresh. 2× Z-Gly-Pro-Arg-AMC peptide substrate was prepared by diluting 10 mM stock into 1× assay buffer for a 100 μM working concentration (50 μM final concentration). The 2× kallikrein stock solution was prepared by diluting 14.76 μM stock in 1× assay buffer for a 4 nM working stock solution (2 nM final concentration).
Test compound(s) were run in an 11-point, 3-fold serial dilution with a final top compound concentration of 1 μM. Final DMSO in assay: 2% DMSO. 2 nM kallikrein and test compound were pre-incubated for 30 minutes and 50 μM substrate was then added to initiate the reaction. The assay was linear using 2 nM kallikrein greater than 30 minutes. More specifically, the assay was run as follows: • 100 nL of 1 mM test compound was dispensed into a black 384-well non-binding Greiner BioOne 784900 plate for 10 μM final concentration with 1% DMSO final concentration; • 5 μL of 1× assay buffer was dispensed to columns 24 (low control) and 5 μL 2× human kallikrein enzyme solution was dispensed to columns 1-23 (column 23 high control); • the plate was centrifuged with a cover plate at 500 rpm for 1 min • the plate was pre-incubated for 30 minutes at room temperature with plate covered; • 5 μL of 2× Z-Gly-Pro-Arg-AMC peptide substrate was dispensed into the entire plate, columns 1-24; • the plate was centrifuged with a “cover” plate at 500 rpm for 1 min; • the plate was read kinetically monitoring fluorescence intensity on the BMG PHERAStar at room temperature, using fluorescence module F1 340 mm/440 mm.
as §1

Data set [3] has as its system human hepatocytes. In words: In vitro metabolism in human cryopreserved hepatocytes. Particulars: positive control, 10 μM, 1×10^6 cells/mL, 3 hours. The class given is in vitro ADME. The method, then: In Vitro Metabolism of in Human Cryopreserved Hepatocytes
The human hepatocytes used for in vitro metabolism of the compound of formula (I-A) were purchased from Bioreclamation IVT (Westbury, NY); cryopreserved human hepatocytes (lot number: UYG).
Cryopreserved hepatocytes were rapidly thawed […] vials were placed in a 37° C. water bath for approximately 90 sec, then immediately added to pre-warmed hepatocyte thawing media. The cells were resuspended within the media and then centrifuged at 700×g for 7 minutes at room temperature.
The supernatant was discarded, and the cells were resuspended in 2 mL of Krebs-Henseleit buffer containing 12.5 mM HEPES pH 7.4 (KHB). Cell viability and yield were determined by Trypan Blue exclusion. The hepatocytes were then diluted in KHB to a cell concentration of 2×10^6 cells/mL (500 μL/well in 10 mL glass tubes). The tubes were placed on a rotary shaker in a humidifier incubator supplied with 5% CO2 and allowed 15 minutes acclimation at 37° C. prior to use. The compound of formula (I-A) or positive control, diclofenac (10 μM), in KHB was then added to the hepatocytes to achieve a final concentration of 10 μM and cell concentration of 1×10^6 cells/mL (1000 μL final incubation volume). Cells were incubated for zero or 3 hours. At the end of the incubation period, the cells were quenched with 6-volumes of ice-cold acetonitrile containing 0.02% formic acid, vortexed and sonicated (5 min). Precipitated proteins were pelleted by centrifugation (3000 rpm, 10 minutes, 4° C.) and the supernatant was transferred to borosilicate tubes and evaporated to dryness under a gentle stream of nitrogen.
The resulting residue after evaporation was reconstituted in 250 μL of water:acetonitrile (9:1 v/v) containing 0.01% formic acid with sonication and vortexing to aid solubilization of drug-derived materials prior to filtration using 0.45μ nylon filter at 10,000×g at room temperature for 10 minutes. The filtrate was transferred to a 96-well plate for liquid chromatography/ultraviolet/mass spectrometry (LC-UV/MS) analysis.
LC/UV/MS (Liquid Chromatography/Ultraviolet/Mass Spectrometry)
LTQ/Orbitrap (Thermo Scientific, Inc., Bremen, Germany) was carried out by data-dependent accurate mass measurements at resolving powers of 15,000 for full scan MS and 7,500 for MS^2 (also known as MS/MS or tandem mass spec) under single ion locked mass mode.
Quantification of the unchanged drug and its metabolites was carried out by integration of the individual chromatographically separated UV peaks and provided the percentage of total peak area.

Chain of Factor XIa (P03951 388-625 limits assumed): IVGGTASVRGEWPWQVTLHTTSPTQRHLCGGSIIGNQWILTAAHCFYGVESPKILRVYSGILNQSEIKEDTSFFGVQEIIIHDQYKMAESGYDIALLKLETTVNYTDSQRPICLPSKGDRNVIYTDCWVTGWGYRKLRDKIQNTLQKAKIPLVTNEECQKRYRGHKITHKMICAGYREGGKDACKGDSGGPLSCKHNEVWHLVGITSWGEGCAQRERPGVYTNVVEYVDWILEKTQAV
Chain of Factor XIa (P03951 19-387 partner limits assumed): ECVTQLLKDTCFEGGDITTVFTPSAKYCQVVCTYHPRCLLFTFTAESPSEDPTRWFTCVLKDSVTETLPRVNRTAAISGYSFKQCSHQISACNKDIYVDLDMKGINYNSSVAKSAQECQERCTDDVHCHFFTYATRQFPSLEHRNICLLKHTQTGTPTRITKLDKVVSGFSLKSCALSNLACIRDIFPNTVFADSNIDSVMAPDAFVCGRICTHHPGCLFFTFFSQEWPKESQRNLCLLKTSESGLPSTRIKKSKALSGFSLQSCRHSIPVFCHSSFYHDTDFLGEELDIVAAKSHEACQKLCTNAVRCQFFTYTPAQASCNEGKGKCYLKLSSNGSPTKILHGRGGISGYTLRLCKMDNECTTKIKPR
Chain of human plasma kallikrein (P03952 391-638 limits assumed): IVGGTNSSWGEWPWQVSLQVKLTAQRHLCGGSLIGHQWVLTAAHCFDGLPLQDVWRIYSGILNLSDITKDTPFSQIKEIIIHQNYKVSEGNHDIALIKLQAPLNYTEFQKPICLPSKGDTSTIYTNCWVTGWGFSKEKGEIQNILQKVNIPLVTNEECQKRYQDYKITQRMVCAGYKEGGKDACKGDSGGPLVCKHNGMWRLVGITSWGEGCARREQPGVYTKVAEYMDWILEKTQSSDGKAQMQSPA
Chain of human plasma kallikrein (P03952 20-390 partner limits assumed): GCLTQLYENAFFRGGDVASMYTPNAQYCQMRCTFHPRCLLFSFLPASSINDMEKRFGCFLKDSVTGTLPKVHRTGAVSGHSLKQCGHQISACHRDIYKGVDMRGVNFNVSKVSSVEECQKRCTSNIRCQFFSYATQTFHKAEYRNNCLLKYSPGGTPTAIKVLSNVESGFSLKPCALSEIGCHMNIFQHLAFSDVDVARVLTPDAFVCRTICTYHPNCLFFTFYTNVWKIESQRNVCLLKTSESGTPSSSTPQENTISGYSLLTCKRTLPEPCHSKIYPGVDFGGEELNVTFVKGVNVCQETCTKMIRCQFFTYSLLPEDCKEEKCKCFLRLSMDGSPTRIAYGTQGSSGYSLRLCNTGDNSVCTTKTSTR

As to `[2H]C([2H])(O)c1nccc(-c2cnc([C@@H]3CCC4([2H])CC(c5c(-n6cnnn6)ccc(Cl)c5F)=CC(=O)N34)[nH]2)c1F` (single isomer, unassigned) [Compound of formula (I-F), (3S,8aR*)-7-(3-Chloro-2-fluoro-6-(1H-tetrazol-1-yl)phenyl)-3-(5-(3-fluoro-2-(hydroxymethyl-d2)pyridin-4-yl)-1H-imidazol-2-yl)-2,3,8,8a-tetrahydroindolizin-5(1H)-one-8a-d], the IC50 in data set [1] worked out at 5.1 nM; in data set [2], 34 nM.

In data set [1], `[2H]C1([2H])C[C@@H](c2ncc(-c3ccnc(CO)c3F)[nH]2)N2C(=O)C=C(c3c(-n4cnnn4)ccc(Cl)c3F)C([2H])([2H])[C@]21[2H]` (single isomer, unassigned) [Compound of formula (I-G)] came in with an IC50 of 3.9 nM. With `[2H]C1([2H])C(c2c(-n3cnnn3)ccc(Cl)c2F)=CC(=O)N2[C@H](c3ncc(-c4ccnc(CO)c4F)[nH]3)CC[C@@]21[2H]` (single isomer, unassigned) [Compound of formula (I-K)], the IC50 in data set [2] worked out at 9.7 nM. As to `[2H]c1nnnn1-c1ccc(Cl)c(F)c1C1=CC(=O)N2[C@@H](CC[C@@H]2c2ncc(-c3ccnc(C([2H])([2H])O)c3F)[nH]2)C1` (stereo in doubt) [Compound of formula (I-J), (3R,8aS)-7-(3-Chloro-2-fluoro-6-(1H-tetrazol-1-yl-d)phenyl)-3-(4-(3-fluoro-2-(hydroxymethyl-d2)pyridin-4-yl)-1H-imidazol-2-yl)-2,3,8,8a-tetrahydroindolizin-5(1H)-one], the IC50 in data set [1] came out at 4.1 nM; in data set [2] it was 32 nM. Regarding `O=C(O)Cc1ccccc1Nc1c(Cl)cccc1Cl` [diclofenac, reference compound], the “turnover from human hepatocytes” value in data set [3] was determined as 89%.
